Measurements from patent US20100311714A1, “1H-IMIDAZO[4,5-c]QUINOLINONE COMPOUNDS” (priority 2009, published 2010).
Read-outs that look alike come from different tables or passages of the source.

Biological target: T1, PI3K delta (Homo sapiens, UniProt O00329)
T1 construct: for the full-length p110-d subunit are generated and fused by overlapping PCR; His tag (C); made in house; host or cells: baculovirus BV1060; Tn5 (Trichoplusia ni) or TiniPro insect cells
Assay: PI3K delta kinase assay (Kinase-Glo luminescence)
Type: biochemical
In short: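 IC50s derive from 8-point inhibition curves fitted to a 4-parameter logistic model. Reaction: 10 nM purified p110δ/p85 iSH2 fusion, 1 μM ATP, 10 μg/mL PI substrate, pH 7.5 Tris buffer with MgCl2, NaCl, CHAPS and DTT, run 60 min at room temperature; remaining ATP read by Kinase-Glo luminescence.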

T1 sequence (O00329 with tags, fused parts or gaps limits assumed): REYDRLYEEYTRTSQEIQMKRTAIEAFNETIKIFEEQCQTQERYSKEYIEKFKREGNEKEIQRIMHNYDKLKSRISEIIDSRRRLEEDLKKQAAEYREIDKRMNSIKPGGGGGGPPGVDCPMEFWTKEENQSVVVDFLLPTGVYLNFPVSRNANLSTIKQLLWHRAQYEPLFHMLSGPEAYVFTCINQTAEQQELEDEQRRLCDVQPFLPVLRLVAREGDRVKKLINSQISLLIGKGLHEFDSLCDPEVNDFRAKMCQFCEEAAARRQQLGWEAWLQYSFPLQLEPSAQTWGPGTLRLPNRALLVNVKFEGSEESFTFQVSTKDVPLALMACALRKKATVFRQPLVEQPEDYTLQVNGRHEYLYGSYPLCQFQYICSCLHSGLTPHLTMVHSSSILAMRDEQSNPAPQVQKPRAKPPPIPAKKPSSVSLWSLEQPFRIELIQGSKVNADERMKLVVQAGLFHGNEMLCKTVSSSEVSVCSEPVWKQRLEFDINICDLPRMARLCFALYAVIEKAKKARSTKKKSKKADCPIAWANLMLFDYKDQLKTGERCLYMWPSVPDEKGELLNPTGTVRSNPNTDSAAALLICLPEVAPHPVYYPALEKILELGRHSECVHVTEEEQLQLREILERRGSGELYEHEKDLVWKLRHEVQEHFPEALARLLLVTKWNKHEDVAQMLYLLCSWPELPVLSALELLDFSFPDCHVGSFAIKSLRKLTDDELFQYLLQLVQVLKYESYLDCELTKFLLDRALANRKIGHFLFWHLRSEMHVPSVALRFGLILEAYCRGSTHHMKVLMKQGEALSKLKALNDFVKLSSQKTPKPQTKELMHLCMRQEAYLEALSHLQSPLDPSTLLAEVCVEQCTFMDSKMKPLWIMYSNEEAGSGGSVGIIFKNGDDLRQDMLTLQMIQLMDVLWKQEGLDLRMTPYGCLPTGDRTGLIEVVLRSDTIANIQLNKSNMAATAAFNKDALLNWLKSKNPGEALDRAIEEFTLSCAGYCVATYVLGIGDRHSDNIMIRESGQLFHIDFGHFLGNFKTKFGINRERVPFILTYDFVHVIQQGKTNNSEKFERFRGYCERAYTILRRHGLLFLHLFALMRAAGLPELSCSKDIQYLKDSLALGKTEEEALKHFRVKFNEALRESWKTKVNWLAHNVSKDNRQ

| IC50 (read-out: EPK_PI3Kdelta/IC50) [nM] | IC50 (read-out: PI3Kdelta/IC50) [nM] | Compound |
| --- | --- | --- |
| 28 |  | Cc1ccc(-n2c(=O)n(C)c3cnc4ccc(-c5cnc6c(ccn6C)c5)cc4c32)c(C)n1 [Example 14.7, 1-(2,6-Dimethyl-pyridin-3-yl)-3-methyl-8-(1-methyl-1H-pyrrolo[2,3-b]pyridin-5-yl)-1,3-dihydro-imidazo[4,5-c]quinolin-2-one] |
| 14 |  | COCCOc1ccc(-n2c(=O)n(C)c3cnc4ccc(-c5cnc(N)c(C(F)(F)F)c5)cc4c32)c(C)n1 [Example 13.2, 8-(6-Amino-5-trifluoromethyl-pyridin-3-yl)-1-[6-(2-methoxy-ethoxy)-2-methyl-pyridin-3-yl]-3-methyl-1,3-dihydro-imidazo[4,5-c]quinolin-2-one] |
| 46 |  | Cc1ccc(-n2c(=O)n(C)c3cnc4ccc(-c5cncc(NC(C)C)c5)cc4c32)c(C)n1 [Example 14.8, 1-(2,6-Dimethyl-pyridin-3-yl)-8-(5-isopropylamino-pyridin-3-yl)-3-methyl-1,3-dihydro-imidazo[4,5-c]quinolin-2-one] |
|  | 81 | CNc1ccc(-c2ccc3ncc4c(c3c2)n(-c2cccnc2OC)c(=O)n4C)cn1 [Example 1.4, 1-(2-Methoxy-pyridin-3-yl)-3-methyl-8-(6-methylamino-pyridin-3-yl)-1,3-dihydro-imidazo[4,5-c]quinolin-2-one] |
|  | 26 | COc1ccc(-c2ccc3ncc4c(c3c2)n(-c2cccnc2OC)c(=O)n4C)cn1 [Example 1.1, 1-(2-Methoxy-pyridin-3-yl)-8-(6-methoxy-pyridin-3-yl)-3-methyl-1,3-dihydro-imidazo[4,5-c]quinolin-2-one] |
|  | 22 | CNc1ncc(-c2ccc3ncc4c(c3c2)n(-c2cccnc2C)c(=O)n4C)cn1 [Example 2.2, 3-Methyl-8-(2-methylamino-pyrimidin-5-yl)-1-(2-methyl-pyridin-3-yl)-1,3-dihydro-imidazo[4,5-c]quinolin-2-one] |
| 27 |  | CCNc1cc(-c2ccc3ncc4c(c3c2)n(-c2cnc(F)cc2C)c(=O)n4C)cnc1C [Example 16.2, 8-(5-Ethylamino-6-methyl-pyridin-3-yl)-1-(6-fluoro-4-methyl-pyridin-3-yl)-3-methyl-1,3-dihydro-imidazo[4,5-c]quinolin-2-one] |
| 12 |  | CNc1ncc(-c2ccc3ncc4c(c3c2)n(-c2ccc(F)nc2C)c(=O)n4C)cc1F [Example 7.12, 8-(5-Fluoro-6-methylamino-pyridin-3-yl)-1-(6-fluoro-2-methyl-pyridin-3-yl)-3-methyl-1,3-dihydro-imidazo[4,5-c]quinolin-2-one] |
| 26 |  | CNc1ccc(-c2ccc3ncc4c(c3c2)n(-c2ccc(OCCOC)nc2C)c(=O)n4C)cn1 [Example 13.3, 1-[6-(2-Methoxy-ethoxy)-2-methyl-pyridin-3-yl]-3-methyl-8-(6-methylamino-pyridin-3-yl)-1,3-dihydro-imidazo[4,5-c]quinolin-2-one] |
| 12 |  | CNc1ncc(-c2ccc3ncc4c(c3c2)n(-c2ccc(N(C)C)nc2C)c(=O)n4C)cn1 [Example 19.1, 1-(6-Dimethylamino-2-methyl-pyridin-3-yl)-3-methyl-8-(2-methylamino-pyrimidin-5-yl)-1,3-dihydro-imidazo[4,5-c]quinolin-2-one] |
| 45 |  | COCCN(C)c1ccc(-n2c(=O)n(C)c3cnc4ccc(-c5cncc(N)c5)cc4c32)c(C)n1 [Example 15.8, 8-(5-Amino-pyridin-3-yl)-1-{6-[(2-methoxy-ethyl)-methyl-amino]-2-methyl-pyridin-3-yl}-3-methyl-1,3-dihydro-imidazo[4,5-c]quinolin-2-one] |
| 55 |  | CCNc1cc(-c2ccc3ncc4c(c3c2)n(-c2ccc(N3CC(F)(F)C3)nc2C)c(=O)n4C)cnc1CO [Example 24.3, 1-[6-(3,3-Difluoro-azetidin-1-yl)-2-methyl-pyridin-3-yl]-8-(5-ethylamino-6-hydroxymethyl-pyridin-3-yl)-3-methyl-1,3-dihydro-imidazo[4,5-c]quinolin-2-one] |
|  | 364 | COc1ncccc1-n1c(=O)n(C)c2cnc3ccc(-c4ccc(F)nc4)cc3c21 [Example 1.8, 8-(6-Fluoro-pyridin-3-yl)-1-(2-methoxy-pyridin-3-yl)-3-methyl-1,3-dihydro-imidazo[4,5-c]quinolin-2-one] |
| 9 |  | CCNc1cc(-c2ccc3ncc4c(c3c2)n(-c2ccc(N(C)CCOC)nc2C)c(=O)n4C)cnc1C [Example 15.6, 8-(5-Ethylamino-6-methyl-pyridin-3-yl)-1-{6-[(2-methoxy-ethyl)-methyl-amino]-2-methyl-pyridin-3-yl}-3-methyl-1,3-dihydro-imidazo[4,5-c]quinolin-2-one] |
| 14 |  | Cc1nc(C(C)(C)O)ccc1-n1c(=O)n(C)c2cnc3ccc(-c4cncc(OC(C)C)c4)cc3c21 [Example 31.9, 1-[6-(1-Hydroxy-1-methyl-ethyl)-2-methyl-pyridin-3-yl]-8-(5-isopropoxy-pyridin-3-yl)-3-methyl-1,3-dihydro-imidazo[4,5-c]quinolin-2-one] |
| 9 |  | Cc1nc(N2CCC(O)C2)ccc1-n1c(=O)n(C)c2cnc3ccc(-c4cncc(OC(C)C)c4)cc3c21 (stereo not shown) [Example 27.1, 1-[6-(3-Hydroxy-pyrrolidin-1-yl)-2-methyl-pyridin-3-yl]-8-(5-isopropoxy-pyridin-3-yl)-3-methyl-1,3-dihydro-imidazo[4,5-c]quinolin-2-one] |
| 5 |  | Cc1nc(N2CC(F)(F)C(F)(F)C2)ccc1-n1c(=O)n(C)c2cnc3ccc(-c4cncc(C(C)(C)O)c4)cc3c21 [Example 35.1, 8-[5-(1-Hydroxy-1-methyl-ethyl)-pyridin-3-yl]-3-methyl-1-[2-methyl-6-(3,3,4,4-tetrafluoro-pyrrolidin-1-yl)-pyridin-3-yl]-1,3-dihydro-imidazo[4,5-c]quinolin-2-one] |
|  | 57 | Cc1ncccc1-n1c(=O)n(C)c2cnc3ccc(-c4cnc5c(ccn5C)c4)cc3c21 [Example 2.14, 3-Methyl-1-(2-methyl-pyridin-3-yl)-8-(1-methyl-1H-pyrrolo[2,3-b]pyridin-5-yl)-1,3-dihydro-imidazo[4,5-c]quinolin-2-one] |
|  | 12 | COc1ccc(-n2c(=O)n(C)c3cnc4ccc(-c5cnc(N)c(C(F)(F)F)c5)cc4c32)c(OC)n1 [Example 8.1, 8-(6-Amino-5-trifluoromethyl-pyridin-3-yl)-1-(2,6-dimethoxy-pyridin-3-yl)-3-methyl-1,3-dihydro-imidazo[4,5-c]quinolin-2-one] |
| 3 |  | CNc1ncc(-c2ccc3ncc4c(c3c2)n(-c2ccc(F)nc2C)c(=O)n4C)cc1C(F)(F)F [Example 7.13, 1-(6-Fluoro-2-methyl-pyridin-3-yl)-3-methyl-8-(6-methylamino-5-trifluoromethyl-pyridin-3-yl)-1,3-dihydro-imidazo[4,5-c]quinolin-2-one] |
| 24 |  | COc1cc(-c2ccc3ncc4c(c3c2)n(-c2ccc(N(C)C)nc2C)c(=O)n4C)cnc1CO [Example 19.4, 1-(6-Dimethylamino-2-methyl-pyridin-3-yl)-8-(6-hydroxymethyl-5-methoxy-pyridin-3-yl)-3-methyl-1,3-dihydro-imidazo[4,5-c]quinolin-2-one] |
| 7 |  | Cc1ccc(-n2c(=O)n(C)c3cnc4ccc(-c5cnc(N)c(C(F)(F)F)c5)cc4c32)c(C)n1 [Example 14.5, 8-(6-Amino-5-trifluoromethyl-pyridin-3-yl)-1-(2,6-dimethyl-pyridin-3-yl)-3-methyl-1,3-dihydro-imidazo[4,5-c]quinolin-2-one] |
| 44 |  | COCCN(C)c1ccc(-n2c(=O)n(C)c3cnc4ccc(-c5cnc(N(C)C)nc5)cc4c32)c(C)n1 [Example 15.5, 8-(2-Dimethylamino-pyrimidin-5-yl)-1-{6-[(2-methoxy-ethyl)-methyl-amino]-2-methyl-pyridin-3-yl}-3-methyl-1,3-dihydro-imidazo[4,5-c]quinolin-2-one] |
| 395 |  | CCOc1ccc(-c2ccc3ncc4c(c3c2)n(-c2ccc(N(C)C)nc2C)c(=O)n4C)cn1 [Example 19.3, 1-(6-Dimethylamino-2-methyl-pyridin-3-yl)-8-(6-ethoxy-pyridin-3-yl)-3-methyl-1,3-dihydro-imidazo[4,5-c]quinolin-2-one] |
| 20 |  | CCNc1cc(-c2ccc3ncc4c(c3c2)n(-c2ccc(C)nc2C)c(=O)n4C)cnc1C [Example 14.6, 1-(2,6-Dimethyl-pyridin-3-yl)-8-(5-ethylamino-6-methyl-pyridin-3-yl)-3-methyl-1,3-dihydro-imidazo[4,5-c]quinolin-2-one] |
| 22 |  | CCNc1cc(-c2ccc3ncc4c(c3c2)n(-c2ccc(OC)nc2Cl)c(=O)n4C)cnc1C [Example 18.1, 1-(2-Chloro-6-methoxy-pyridin-3-yl)-8-(5-ethylamino-6-methyl-pyridin-3-yl)-3-methyl-1,3-dihydro-imidazo[4,5-c]quinolin-2-one] |
| 117 |  | CCOc1ccc(-c2ccc3ncc4c(c3c2)n(-c2ccc(N(C)CCOC)nc2C)c(=O)n4C)cn1 [Example 15.3, 8-(6-Ethoxy-pyridin-3-yl)-1-{6-[(2-methoxy-ethyl)-methyl-amino]-2-methyl-pyridin-3-yl}-3-methyl-1,3-dihydro-imidazo[4,5-c]quinolin-2-one] |
| 15 |  | CCN(C)c1ccc(-n2c(=O)n(C)c3cnc4ccc(-c5ccc(NC)nc5)cc4c32)c(C)n1 [Example 12.1, 1-[6-(Ethyl-methyl-amino)-2-methyl-pyridin-3-yl]-3-methyl-8-(6-methylamino-pyridin-3-yl)-1,3-dihydro-imidazo[4,5-c]quinolin-2-one] |
